Laboratory results published in ChEMBL document CHEMBL5215003, “Evaluating the in Vitro Efficacy of Quassinoids from Eurycoma longifolia and Eurycoma harmandiana against Common Cold Human Coronavirus OC43 and SARS-CoV-2 Using In-Cell Enzyme-Linked Immunosorbent Assay” (J Nat Prod, 2022).
Where “and” joins values, the source holds several entries; their conditions need not be identical. Equal values may be shown once.

Key:
[1] = Antiviral activity against HCoV-OC43 infected in human HCT-8 cells assessed as inhibition of viral growth at 10 uM incubated for 4 days by ELISA analysis relative to control; format: functional, Human coronavirus OC43; design: scale not given: the % may be the effect or the level left; conditions: time 4 day
HCT-8 = experiment: Cytotoxicity against human HCT-8 cells assessed as redcution in cell viability at 10 uM incubated for 96 hrs by PrestoBlue reagent based assay relative to control; format: toxicity; conditions: hct-8, 96 h
[2] = Cytotoxicity against human HCT-8 cells assessed as redcution in cell viability incubated for 96 hrs by PrestoBlue reagent based assay; format: toxicity
[3] = Cytotoxicity against African green monkey Vero cells assessed as reduction in cell viability incubated for 48 hrs by PrestoBlue reagent based assay; format: toxicity; conditions: chlorocebus sabaeus
[4] = Cytotoxicity against human Calu-3 cells assessed as reduction in cell viability incubated for 48 hrs by PrestoBlue reagent based assay; format: toxicity
[5] = Cytotoxicity against human MRC5 cells assessed as reduction in cell viability incubated for 48 hrs by PrestoBlue reagent based assay; format: toxicity
[6] = Cytotoxicity against human HepG2 cells assessed as reduction in cell viability incubated for 48 hrs by PrestoBlue reagent based assay; format: toxicity
[7] = Antiviral activity against HCoV-OC43 infected in human HCT-8 cells assessed as inhibition of viral growth incubated for 4 days by ELISA analysis; format: functional, cell-based, Human coronavirus OC43; conditions: Betacoronavirus 1, HCT-8, 96 h
[8] = Selectivity index, ratio of CC50 for cytotoxicity against human HCT-8 cells to IC50 for antiviral activity against HCoV-OC43 infected in human HCT-8 cells; format: toxicity, cell-based; conditions: read-out: Ratio CC50/IC50
SARS-CoV-2 [9] = experiment: Antiviral activity against SARS-CoV-2 infected in African green monkey Vero cells assessed as inhibition of viral growth incubated for 2 days by ELISA analysis; format: functional, organism-based; conditions: Severe acute respiratory syndrome coronavirus 2, Vero, 48 h
[10] = Selectivity index, ratio of CC50 for cytotoxicity against African green monkey Vero cells to IC50 for antiviral activity against SARS-CoV-2 infected in African green monkey Vero cells; format: toxicity, cell-based; conditions: read-out: Ratio CC50/IC50
SARS-CoV-2 [11] = experiment: microbe, parasite or virus in culture; format: functional, organism-based, Vero E6; conditions: Severe acute respiratory syndrome coronavirus 2, Vero C1008

| Structure (SMILES) | Activity [1] [%] | Activity (HCT-8) [%] | CC50 at 96 h [2] [µM] | CC50 at 48 h [3] [µM] | CC50 at 48 h [4] [µM] | CC50 at 48 h [5] [µM] | CC50 at 48 h [6] [µM] | IC50 [7] [µM] | selectivity ratio [8] | IC50 (SARS-CoV-2 [9]) | selectivity ratio [10] | IC50 (SARS-CoV-2 [11]) [µM] |
| --- | --- | --- | --- | --- | --- | --- | --- | --- | --- | --- | --- | --- |
| O=c1ccc2nccc3c4ccc(O[C@@H]5O[C@H](CO)[C@@H](O)[C@H](O)[C@H]5O)cc4n1c23 | <20 | 53.28 | 33.8 | > 100 | > 100 | > 100 | > 100 | – | – | – | – | – |
| CC1=CC(=O)[C@@H](O)[C@]2(C)[C@H]3[C@]4(O)OC[C@@]35[C@@H](C[C@@H]12)OC(=O)[C@H](O)[C@@]5(O)[C@]1(CO1)[C@H]4O | 61.73 | 100.88 | > 100 | > 100 | > 100 | > 100 | > 100 | 5.88 | > 17 | 9.39 µM and 3.98 µg/mL | > 10.7 | – |
| O=c1ccc2nccc3c4ccc(O)cc4n1c23 | <20 | 49.3 | 60.9 | > 100 | > 100 | > 100 | > 100 | – | – | – | – | – |
| COC(=O)[C@@]12OC[C@]34[C@H]([C@@H](O)[C@@H]1O)[C@@]1(C)CC(=O)C(O)=C(C)[C@@H]1C[C@H]3OC(=O)[C@H](OC(=O)C=C(C)C)[C@@H]24 | – | – | – | – | – | – | – | – | – | – | – | 0.049 |
| COc1ccc2c3ccnc4ccc(=O)n(c2c1)c43 | <20 | 33.49 | 21.1 | > 100 | > 100 | > 100 | > 100 | – | – | – | – | – |
| COc1ccc2c(c1)[nH]c1c(CCC(=O)O)nccc12 | <20 | 108.23 | 79 | > 100 | > 100 | > 100 | > 100 | – | – | – | – | – |
| O=C(O)CCc1nccc2c1[nH]c1ccccc12 | <20 | 108.05 | > 100 | > 100 | > 100 | > 100 | > 100 | – | – | – | – | – |
| O=C(O)CCc1nccc2c1[nH]c1cc(O)ccc12 | <20 | 108.23 | 50.1 | > 100 | > 100 | > 100 | > 100 | – | – | – | – | – |
| CC1=CC(=O)[C@@H](O)[C@]2(C)[C@H]3[C@]4(O)OC[C@@]35[C@@H](C[C@@H]12)OC(=O)C[C@H]5[C@](C)(O)[C@H]4O | 84.54 | 56.66 | 6.65 | 26.2 | 98.7 | 9.99 | 86.7 | 0.32 | 20.8 | 430 nM and 0.16 µg/mL | 61 | – |
| CC1=CC(=O)[C@@H](O)[C@]2(C)[C@H]3[C@]4(O)OC[C@@]35[C@@H](C[C@@H]12)OC(=O)[C@H](O)[C@@]5(O)[C@](C)(O)[C@H]4O | 93.71 | 70.13 | 48.7 | > 100 | > 100 | 54.3 | > 100 | 0.25 | 195 | 4.84 µM and 1.69 µg/mL | > 20.7 | – |
| CC1=CC(=O)[C@@H](O)[C@]2(C)C3[C@@H](O)[C@@H]4OC(=O)[C@@H]([C@H]4C)[C@]3(C)C(=O)C[C@@H]12 (some centres undefined) | 90.27 | 71.14 | 58.9 | 57.1 | 41.9 | 31.2 | > 100 | 0.37 | 159 | 510 nM and 0.18 µg/mL | 112 | – |
| C=C1CC[C@@H]2[C@](C)(CO)[C@H](O)CC[C@@]2(C)[C@@H]1C/C=C1/C(=O)OC[C@H]1O [ANDROGRAPHOLIDE] | 60.4 | 93.47 | – | – | – | – | – | – | – | – | – | – |
| COC(=O)[C@@]12OC[C@]34[C@H]([C@@H](O)[C@@H]1O)[C@@]1(C)CC(=O)C(O)=C(C)[C@@H]1C[C@H]3OC(=O)[C@H](OC(=O)CC(C)C)[C@@H]24 [BRUCEINE A] | – | – | – | – | – | – | – | – | – | – | – | 0.011 |
| O=c1ccc2nccc3c4ccccc4n1c23 [CANTHIN-6-ONE] | <20 | 55.55 | 42.4 | > 100 | > 100 | 91.2 | 85.7 | – | – | – | – | – |
| C=C1[C@@H](O)[C@@]2(O)OC[C@]34[C@H]2[C@@]2(C)[C@H](O)C(=O)C=C(C)[C@@H]2C[C@H]3OC(=O)[C@H](O)[C@@]14O [EURYCOMANONE] | 57.93 | 72.16 | 59.2 | > 100 | 88.1 | > 100 | > 100 | 4.47 | 13.2 | 15 µM and 6.11 µg/mL | > 6.68 | – |
| CCC(CC)COC(=O)[C@H](C)N[P@](=O)(OC[C@H]1O[C@@](C#N)(c2ccc3c(N)ncnn23)[C@H](O)[C@@H]1O)Oc1ccccc1 [REMDESIVIR] | 92.45 | 96.21 | 53.2 | > 100 | > 100 | > 100 | 52.6 | 0.32 | 166 | 22.5 µM | > 4.44 | – |
